Numbers after ± are expanded uncertainties.
Experiment: xn = mol fraction of the nth substance listed
Conditions: Liquid, Pycnometric method

## Cn1ccnc1 [1-methylimidazole] + O=C=O
308.2 K, 15540 kPa, x1 = 0.1024
  mass density: 981 ± 4 kg/m3
308.2 K, 15600 kPa, x1 = 0.0247
  mass density: 901 ± 4 kg/m3
308.2 K, 16080 kPa, x1 = 0.1024
  mass density: 984 ± 4 kg/m3
308.2 K, 16570 kPa, x1 = 0.1024
  mass density: 987 ± 4 kg/m3
308.2 K, 17250 kPa, x1 = 0.1024
  mass density: 991 ± 4 kg/m3
308.2 K, 17650 kPa, x1 = 0.1024
  mass density: 994 ± 4 kg/m3
308.2 K, 18340 kPa, x1 = 0.1024
  mass density: 998 ± 4 kg/m3
308.2 K, 18880 kPa, x1 = 0.1024
  mass density: 1001 ± 4 kg/m3
309.8 K, 8020 kPa, x1 = 0.0102
  mass density: 543 ± 4 kg/m3
309.8 K, 8030 kPa, x1 = 0.0102
  mass density: 551 ± 4 kg/m3
309.8 K, 8040 kPa, x1 = 0.0102
  mass density: 560 ± 4 kg/m3
309.8 K, 8060 kPa, x1 = 0.0102
  mass density: 571 ± 4 kg/m3
309.8 K, 8070 kPa, x1 = 0.0102
  mass density: 581 ± 4 kg/m3
309.8 K, 8090 kPa, x1 = 0.0102
  mass density: 589 ± 4 kg/m3
309.8 K, 8110 kPa, x1 = 0.0102
  mass density: 600 ± 4 kg/m3
309.8 K, 8140 kPa, x1 = 0.0102
  mass density: 612 ± 4 kg/m3
309.8 K, 8180 kPa, x1 = 0.0102
  mass density: 624 ± 4 kg/m3
309.8 K, 8230 kPa, x1 = 0.0102
  mass density: 636 ± 4 kg/m3
309.8 K, 8300 kPa, x1 = 0.0102
  mass density: 649 ± 4 kg/m3
309.8 K, 8390 kPa, x1 = 0.0102
  mass density: 663 ± 4 kg/m3
309.8 K, 8500 kPa, x1 = 0.0102
  mass density: 677 ± 4 kg/m3
309.8 K, 8650 kPa, x1 = 0.0102
  mass density: 691 ± 4 kg/m3
309.8 K, 8830 kPa, x1 = 0.0102
  mass density: 707 ± 4 kg/m3
309.8 K, 9090 kPa, x1 = 0.0102
  mass density: 723 ± 4 kg/m3
309.8 K, 9420 kPa, x1 = 0.0102
  mass density: 740 ± 4 kg/m3
309.8 K, 9830 kPa, x1 = 0.0102
  mass density: 758 ± 4 kg/m3
309.8 K, 10210 kPa, x1 = 0.0102
  mass density: 772 ± 4 kg/m3
309.8 K, 10880 kPa, x1 = 0.0102
  mass density: 790 ± 4 kg/m3
309.8 K, 11970 kPa, x1 = 0.0102
  mass density: 816 ± 4 kg/m3
309.8 K, 12530 kPa, x1 = 0.0102
  mass density: 826 ± 4 kg/m3
309.8 K, 13140 kPa, x1 = 0.0102
  mass density: 836 ± 4 kg/m3
309.8 K, 13680 kPa, x1 = 0.0102
  mass density: 846 ± 4 kg/m3
313.1 K, 8750 kPa, x1 = 0.0102
  mass density: 576 ± 4 kg/m3
313.1 K, 8770 kPa, x1 = 0.0102
  mass density: 581 ± 4 kg/m3
313.1 K, 8810 kPa, x1 = 0.0102
  mass density: 589 ± 4 kg/m3
313.1 K, 8850 kPa, x1 = 0.0102
  mass density: 597 ± 4 kg/m3
313.1 K, 8890 kPa, x1 = 0.0102
  mass density: 606 ± 4 kg/m3
313.1 K, 8900 kPa, x1 = 0.0247
  mass density: 717 ± 4 kg/m3
313.1 K, 8940 kPa, x1 = 0.0102
  mass density: 615 ± 4 kg/m3
313.1 K, 8990 kPa, x1 = 0.0102
  mass density: 624 ± 4 kg/m3
313.1 K, 9000 kPa, x1 = 0.0247
  mass density: 723 ± 4 kg/m3
313.1 K, 9040 kPa, x1 = 0.0102
  mass density: 633 ± 4 kg/m3
313.1 K, 9120 kPa, x1 = 0.0102
  mass density: 643 ± 4 kg/m3
313.1 K, 9120 kPa, x1 = 0.0247
  mass density: 729 ± 4 kg/m3
313.1 K, 9200 kPa, x1 = 0.0102
  mass density: 653 ± 4 kg/m3
313.1 K, 9260 kPa, x1 = 0.0247
  mass density: 737 ± 4 kg/m3
313.1 K, 9300 kPa, x1 = 0.0102
  mass density: 663 ± 4 kg/m3
313.1 K, 9400 kPa, x1 = 0.0247
  mass density: 744 ± 4 kg/m3
313.1 K, 9420 kPa, x1 = 0.0102
  mass density: 673 ± 4 kg/m3
313.1 K, 9550 kPa, x1 = 0.0102
  mass density: 684 ± 4 kg/m3
313.1 K, 9560 kPa, x1 = 0.0247
  mass density: 751 ± 4 kg/m3
313.1 K, 9700 kPa, x1 = 0.0102
  mass density: 695 ± 4 kg/m3
313.1 K, 9730 kPa, x1 = 0.0247
  mass density: 759 ± 4 kg/m3
313.1 K, 9900 kPa, x1 = 0.0102
  mass density: 707 ± 4 kg/m3
313.1 K, 9940 kPa, x1 = 0.0247
  mass density: 766 ± 4 kg/m3
313.1 K, 10070 kPa, x1 = 0.0487
  mass density: 827 ± 4 kg/m3
313.1 K, 10130 kPa, x1 = 0.0102
  mass density: 719 ± 4 kg/m3
313.1 K, 10170 kPa, x1 = 0.0247
  mass density: 774 ± 4 kg/m3
313.1 K, 10190 kPa, x1 = 0.0487
  mass density: 830 ± 4 kg/m3
313.1 K, 10320 kPa, x1 = 0.0487
  mass density: 833 ± 4 kg/m3
313.1 K, 10380 kPa, x1 = 0.0102
  mass density: 731 ± 4 kg/m3
313.1 K, 10440 kPa, x1 = 0.0487
  mass density: 835 ± 4 kg/m3
313.1 K, 10560 kPa, x1 = 0.0487
  mass density: 838 ± 4 kg/m3
313.1 K, 10570 kPa, x1 = 0.0247
  mass density: 786 ± 4 kg/m3
313.1 K, 10690 kPa, x1 = 0.0487
  mass density: 841 ± 4 kg/m3
313.1 K, 10700 kPa, x1 = 0.0102
  mass density: 744 ± 4 kg/m3
313.1 K, 10830 kPa, x1 = 0.0487
  mass density: 843 ± 4 kg/m3
313.1 K, 10870 kPa, x1 = 0.0247
  mass density: 794 ± 4 kg/m3
313.1 K, 10990 kPa, x1 = 0.0487
  mass density: 846 ± 4 kg/m3
313.1 K, 11080 kPa, x1 = 0.0102
  mass density: 758 ± 4 kg/m3
313.1 K, 11130 kPa, x1 = 0.0487
  mass density: 849 ± 4 kg/m3

Reference: the NIST ThermoML archive (doi:10.1021/je900387e)
